# Measured values taken from DBAASP.
# Legend:
# Experiment in all cases: ≥ marks a high value that may be exact or a test limit, other limits are often not marked, values filed in µg/mL are converted to µM
# [1] = system: Candida albicans ATCC 90028
# [2] = system: Pseudomonas aeruginosa ATCC 9027
# [3] = system: Staphylococcus aureus USA 300
# [4] = system: Staphylococcus aureus USA 100
# [5] = system: Candida albicans ATCC 64550
# [6] = system: Staphylococcus aureus ATCC 29737
# [7] = system: Escherichia coli ATCC 25922
# [8] = system: Staphylococcus epidermidis ATCC 12228
# [9] = system: Streptococcus sanguinis ATCC 10556
# [10] = system: Streptococcus sobrinus ATCC 6715
# [11] = system: Streptococcus mutans UA159
# [12] = system: Candida albicans ATCC 36232
# [13] = system: Micrococcus luteus ATCC 9341
# [14] = system: Staphylococcus aureus ATCC 6538
# [15] = system: Escherichia coli ATCC 2592
# [16] = system: Staphylococcus aureus 1550
# [17] = system: Listeria monocytogenes DSM 20600
# Listeria grayi DSM 20601 = system: Listeria grayi DSM 20601
# [18] = system: Micrococcus luteus DSM 20030
# Escherichia coli D31 = system: Escherichia coli D31
# [19] = system: Listeria fleischmannii DSM 24998
# [20] = system: Staphylococcus aureus ATCC 25923
# [21] = system: Pseudomonas aeruginosa LES400
# Candida albicans C627 = system: Candida albicans C627
# [22] = system: Staphylococcus aureus C623
# [23] = system: Enterococcus faecium mic80
# [24] = system: Pseudomonas aeruginosa 213
# [25] = system: Pseudomonas aeruginosa H103
# [26] = system: Escherichia coli ESBL 63103
# [27] = system: Lactobacillus acidophilus ATCC 14931
# [28] = system: Actinomyces naeslundii ATCC 12104
# [29] = system: Limosilactobacillus fermentum ATCC 9338
# [30] = system: Lacticaseibacillus casei ATCC 393
# [31] = system: Actinomyces viscosus ATCC 15987
# [32] = system: Streptococcus gordonii DL1
# [33] = system: Pseudomonas aeruginosa ATCC 27853
# [34] = system: Bacillus subtilis BGSC 1A1
# Streptococcus agalactiae = system: Streptococcus agalactiae
# Streptococcus pyogenes = system: Streptococcus pyogenes
# [35] = system: Mycobacterium tuberculosis mc2-6020
# Klebsiella pneumoniae = system: Klebsiella pneumoniae
# [36] = system: Streptococcus pneumoniae ATCC 49619
# [37] = system: Mycobacterium tuberculosis mc2-6230
# Streptococcus mutans = system: Streptococcus mutans
smiles,measurement,setting,value
CC[C@H](C)[C@H](N)C(=O)N[C@@H](CCCN=C(N)N)C(=O)N[C@H](C(=O)N[C@@H](CCCN=C(N)N)C(=O)N[C@H](C(=O)N[C@@H](CCCN=C(N)N)C(=O)N[C@H](C(=O)N[C@@H](CCCN=C(N)N)C(N)=O)[C@@H](C)CC)[C@@H](C)CC)[C@@H](C)CC [IRIRIRIR],MIC,[1],6.25 µM
same,MIC,[2],6.25 µM
same,MIC,[3],6.25 µM
same,MIC,[4],6.25 µM
same,MIC,[5],12.5 µM
same,MIC,[6],28.6 µM
same,MIC,[7],7.12 µM
same,MIC,[8],3.56 µM
NCCCC[C@H](NC(=O)[C@H](Cc1c[nH]c2ccccc12)NC(=O)[C@H](CCCCN)NC(=O)[C@H](CCCCN)NC(=O)[C@H](Cc1ccccc1)NC(=O)[C@H](Cc1ccccc1)NC(=O)[C@H](CCCCN)NC(=O)[C@H](CCCCN)NC(=O)[C@H](Cc1ccccc1)NC(=O)[C@H](Cc1ccccc1)NC(=O)[C@H](CCCCN)NC(=O)[C@@H](N)Cc1ccccc1)C(=O)O [FKFFKKFFKKWK],MIC,[9],18.7 µM
same,MIC,[10],18.7 µM
same,MIC,[11],9.36 µM
CC(C)[C@H](NC(=O)[C@H](CCCCN)NC(=O)[C@H](Cc1ccccc1)NC(=O)[C@@H](NC(=O)[C@@H](NC(=O)[C@H](CCCCN)NC(=O)[C@@H](N)Cc1cnc[nH]1)C(C)C)C(C)C)C(=O)N[C@@H](CCCCN)C(=O)N[C@@H](Cc1ccccc1)C(=O)N[C@@H](Cc1cnc[nH]1)C(=O)O [HKVVFKVKFH],MIC,[12],≥ 78.8 µM
same,MIC,[13],7.88 µM
same,MIC,[2],8.67 µM
same,MIC,[14],12.6 µM
same,MIC,[15],15 µM
same,MIC,[16],≥ 49.7 µM
CC[C@H](C)[C@H](NC(=O)[C@H](C)NC(=O)[C@H](CCCCN)NC(=O)[C@H](CCCCN)NC(=O)[C@@H](NC(=O)CNC(=O)[C@H](CCC(=O)O)NC(=O)[C@H](CC(C)C)NC(=O)[C@H](CC(C)C)NC(=O)[C@H](CCCCN)NC(=O)CNC(=O)[C@H](Cc1c[nH]c2ccccc12)NC(=O)[C@H](Cc1ccccc1)NC(=O)CN)C(C)C)C(N)=O [GFWGKLLEGVKKAI],MIC,[17],15 µM
same,MIC,Listeria grayi DSM 20601,8 µM
same,MIC,[18],8 µM
same,MIC,Escherichia coli D31,15 µM
same,MIC,[19],15 µM
CC[C@H](C)[C@H](NC(=O)[C@H](CCCCN)NC(=O)[C@H](Cc1c[nH]c2ccccc12)NC(=O)[C@H](Cc1c[nH]c2ccccc12)NC(=O)[C@@H](N)CCCCN)C(=O)N[C@@H](Cc1c[nH]c2ccccc12)C(=O)N[C@@H](CCCN=C(N)N)C(=O)N[C@@H](Cc1c[nH]c2ccccc12)C(=O)N[C@@H](CCCN=C(N)N)C(=O)O [KWWKIWRWR],MIC,[20],11.1 µM
same,MIC,[21],≥ 44.3 µM
same,MIC,Candida albicans C627,5.54 µM
same,MIC,[22],11.1 µM
same,MIC,[23],22.1 µM
same,MIC,[24],≥ 88.6 µM
same,MIC,[25],22.1 µM
same,MIC,[26],≥ 44.3 µM
CC(C)C[C@H](NC(=O)CN)C(=O)N[C@@H](CC(C)C)C(=O)N[C@@H](Cc1c[nH]c2ccccc12)C(=O)N[C@@H](Cc1cnc[nH]1)C(=O)N[C@@H](CC(C)C)C(=O)N[C@@H](CC(C)C)C(=O)N[C@@H](Cc1cnc[nH]1)C(N)=O [GLLWHLLH],MIC,[27],≥ 130 µM
same,MIC,[28],≥ 130 µM
same,MIC,[29],≥ 130 µM
same,MIC,[30],≥ 64.8 µM
same,MIC,[31],≥ 32.4 µM
same,MIC,[9],≥ 518 µM
same,MIC,[32],≥ 518 µM
same,MIC,[11],≥ 259 µM
CC[C@H](C)[C@H](N)C(=O)N[C@@H](CC(C)C)C(=O)N[C@@H](CO)C(=O)N[C@@H](CC(C)C)C(=O)N[C@@H](CCCN=C(N)N)C(=O)N[C@@H](Cc1c[nH]c2ccccc12)C(=O)N[C@@H](CCCN=C(N)N)C(=O)N[C@@H](Cc1c[nH]c2ccccc12)C(=O)N[C@@H](Cc1c[nH]c2ccccc12)C(=O)N[C@@H](CCCCN)C(=O)N[C@@H](Cc1c[nH]c2ccccc12)C(=O)N[C@@H](CCCCN)C(=O)N[C@@H](CCCCN)C(=O)O [ILSLRWRWWKWKK],MIC,[20],68 µM
same,MIC,[33],32 µM
same,MIC,[34],2 µM
same,MIC,Streptococcus agalactiae,4 µM
same,MIC,Streptococcus pyogenes,4 µM
same,MIC,[35],4 µM
same,MIC,Klebsiella pneumoniae,32 µM
same,MIC,[36],≥ 32 µM
same,MIC,[37],≥ 32 µM
same,MIC,[7],8 µM
same,MIC,Streptococcus mutans,4 µM
